The target of this assay is T1, F508delCFTR (Homo sapiens, UniProt P13569, DEL508-508).
T1 construct: expressed in transfected cells; host or cells: CFBE41o- human lung-derived epithelial cells (CFBE4lo-F508delCFTR-HRP), doxycycline-inducible
Kind of assay: Cell Surface Expression-Horse Radish Peroxidase (CSE-HRP) Assay.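 On Maximum % activity (with co-corrector): co-corrector and positive control are both the same reference corrector at 2 µM.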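 On Maximum % activity (without co-corrector): percent of the 2 µM on-plate positive control corrector response above DMSO.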 The format is cell-based. To be noted: for Emax / Maximum % activity (with co-corrector): maximum at any tested concentration, normalized to on-plate positive control; for Emax: read-out: Maximum % activity (without co-corrector). How it is done: Cell Surface Expression-Horse Radish Peroxidase (CSE-HRP) Assay
The development was achieved by expressing the F508delCFTR mutation along with a horseradish peroxidase (HRP) in the fourth exofacial loop, and then measuring the HRP activity using luminescence readout from these cells, CFBE4lo-F508delCFTR-HRP, that were incubated overnight with the test corrector compounds, either without or with the co-corrector. […] The test compounds were then added either without or with a co-corrector at the required concentrations and further incubated for 18-24 hours at 33° C. The highest concentration tested was 20 μM with an 8-point concentration response curve using a 3-fold dilution in both the test compound without or with the co-corrector. Three replicate plates were run to determine one EC50. All plates contained negative controls (dimethyl sulfoxide, DMSO) and positive control (2 μM of 3-[(2R,4R)-4-({[1-(2,2-difluoro-1,3-benzodioxol-5-yl)cyclopropyl]carbonyl}amino)-7-methoxy-3,4-dihydro-2H-chromen-2-yl]benzoic acid) as well as on-plate concentration response of the positive control. […] The raw counts from the experiment were analyzed using Accelrys® Assay Explorer v3.3.
1−[3*SDPositive Control+3*SDNegative Control/Absolute(MeanPositive Control−MeanNegative Control)]
wherein “SD” is standard deviation.
The % activity measured at each of the 8 test concentrations of the test compound added either without or with a co-corrector (2 μM of 3-[(2R,4R)-4-({[1-(2,2-difluoro-1,3-benzodioxol-5-yl)cyclopropyl]carbonyl}amino)-7-methoxy-3,4-dihydro-2H-chromen-2-yl]benzoic acid) was normalized to the on-plate positive control using the following formulae:
% activity(Test compound without co-corrector)=[(test compound without co-corrector response−DMSO response)/(positive control response−DMSO response)]*100
% activity(Test compound with co-corrector)=[(test compound with co-corrector response−DMSO response)/(positive control response−DMSO response)]*100
The maximum % activity achieved for the test compound either without or with a co-corrector at any tested concentration is presented in Table 4 along with the respective EC50's calculated using the following general sigmoidal curve with variable Hill slope equation (described as Model 42 in the Accelrys® Assay Explorer v3.3 software):
General sigmoidal curve with concentration, response, top, bottom, EC50 and Hill slope. This model describes a sigmoidal curve with an adjustable baseline, a. The equation can be used to fit curves where response is either increasing or decreasing with respect to the independent variable, “x”.
“x” is a concentration of drug under test. “y” is the response. “a” is the maximum response, and “d” is the minimum response “c” is the inflection point (EC50) for the curve. That is, “y” is halfway between the lower and upper asymptotes when x=c. “b” is the slope-factor or Hill coefficient. The sign of b is positive when the response increases with increasing dose and is negative when the response decreases with increasing dose (inhibition).

Setting [1] is: test compound without co-corrector.
Setting [2] is: test compound without co-corrector, read-out: EC50 (without co-corrector).
The mark [3] stands for this setting: with co-corrector (2 μM of 3-[(2R,4R)-4-({[1-(2,2-difluoro-1,3-benzodioxol-5-yl)cyclopropyl]carbonyl}amino)-7-methoxy-3,4-dihydro-2H-chromen-2-yl]benzoic acid).
The mark [4] stands for this setting: with co-corrector (2 μM of 3-[(2R,4R)-4-({[1-(2,2-difluoro-1,3-benzodioxol-5-yl)cyclopropyl]carbonyl}amino)-7-methoxy-3,4-dihydro-2H-chromen-2-yl]benzoic acid), read-out: EC50 (with co-corrector).

Where two headings read alike, the source gives them in different places. A value given as a limit tells only on which side of the number the result lay.

T1 sequence (P13569 with tags, fused parts or gaps DEL508-508): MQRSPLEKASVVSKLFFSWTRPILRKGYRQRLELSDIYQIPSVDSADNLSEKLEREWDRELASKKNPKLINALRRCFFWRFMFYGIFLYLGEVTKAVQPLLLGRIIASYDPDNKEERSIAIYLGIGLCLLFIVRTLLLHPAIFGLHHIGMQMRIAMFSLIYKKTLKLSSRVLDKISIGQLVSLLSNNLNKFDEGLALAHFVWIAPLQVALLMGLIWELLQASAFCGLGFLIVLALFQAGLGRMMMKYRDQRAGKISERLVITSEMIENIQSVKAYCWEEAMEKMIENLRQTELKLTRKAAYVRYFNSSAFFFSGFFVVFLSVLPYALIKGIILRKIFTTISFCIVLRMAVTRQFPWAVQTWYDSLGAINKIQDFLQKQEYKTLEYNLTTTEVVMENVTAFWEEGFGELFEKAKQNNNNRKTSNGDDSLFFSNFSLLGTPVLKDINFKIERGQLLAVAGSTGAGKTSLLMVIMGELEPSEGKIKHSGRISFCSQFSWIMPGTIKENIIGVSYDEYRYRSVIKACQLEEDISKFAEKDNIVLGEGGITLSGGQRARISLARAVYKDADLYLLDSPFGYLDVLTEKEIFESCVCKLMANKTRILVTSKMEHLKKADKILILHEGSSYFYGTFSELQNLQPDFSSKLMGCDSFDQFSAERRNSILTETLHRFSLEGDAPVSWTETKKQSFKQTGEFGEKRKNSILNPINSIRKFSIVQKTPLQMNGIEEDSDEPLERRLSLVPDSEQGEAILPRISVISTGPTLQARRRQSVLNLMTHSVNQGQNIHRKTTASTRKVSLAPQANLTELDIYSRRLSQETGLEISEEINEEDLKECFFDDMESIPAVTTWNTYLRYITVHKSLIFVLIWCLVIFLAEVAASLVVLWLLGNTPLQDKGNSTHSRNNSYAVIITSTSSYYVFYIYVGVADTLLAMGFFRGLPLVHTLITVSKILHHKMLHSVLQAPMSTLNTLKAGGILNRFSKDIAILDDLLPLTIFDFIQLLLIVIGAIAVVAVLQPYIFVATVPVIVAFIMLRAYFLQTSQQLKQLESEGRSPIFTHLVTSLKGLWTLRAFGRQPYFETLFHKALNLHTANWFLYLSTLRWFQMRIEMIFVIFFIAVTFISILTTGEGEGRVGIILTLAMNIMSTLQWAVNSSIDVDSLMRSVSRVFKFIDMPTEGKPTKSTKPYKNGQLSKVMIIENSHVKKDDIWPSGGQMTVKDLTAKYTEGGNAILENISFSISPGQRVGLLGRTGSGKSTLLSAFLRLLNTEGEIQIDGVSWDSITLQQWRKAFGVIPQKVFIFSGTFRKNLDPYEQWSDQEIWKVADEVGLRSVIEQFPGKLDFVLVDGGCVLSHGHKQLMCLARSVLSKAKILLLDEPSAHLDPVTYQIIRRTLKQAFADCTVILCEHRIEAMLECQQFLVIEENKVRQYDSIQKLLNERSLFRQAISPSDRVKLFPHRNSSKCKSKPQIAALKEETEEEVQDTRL

As to `CC(C)N(C(=O)N1[C@H](c2ccccc2)[C@H](NCc2ccccc2OC(F)F)[C@@H](C)[C@@H]1C(=O)O)C(C)C` (racemic) [III-34], the Emax under setting [1] was < 100%. Besides, the 50% effective concentration (EC50) is 1 to 10 µM under setting [2] and 1 to 10 µM under setting [4]. Further, the “Maximum % activity (with co-corrector)” value under setting [3] is “++ (≥150 and <350)”.

Take `COc1cc(C(F)(F)F)ccc1CN[C@@H]1[C@@H](C(C)(C)C)[C@H](C(=O)O)N(C(=O)C2CCCCC2)[C@@H]1c1ccccc1` (racemic) [III-35]: the Emax under setting [1] fell in the range of 100 to 200%. Also, the EC50 runs as follows: under setting [2], 1 to 10 µM; under setting [4], < 1 µM. Under setting [3], the “Maximum % activity (with co-corrector)” value is “+++ (≥350)”.

Turning to `CN(C)c1ncc(C(F)(F)F)cc1CN[C@@H]1[C@@H](C(C)(C)C)[C@H](C(=O)O)N(C(=O)C2CCCCC2)[C@@H]1c1ccccc1` (racemic) [III-36], the Emax under setting [1] is < 100%. For the same compound, the concentration giving a half-maximal response (EC50) is > 10 µM under setting [2] and 1 to 10 µM under setting [4]. Moreover, under setting [3], the “Maximum % activity (with co-corrector)” value was “++ (≥150 and <350)”.

As to `COc1ccc(Cl)cc1CN[C@@H]1[C@@H](C)[C@H](C(=O)O)N(C(=O)N(C(C)C)C(C)C)[C@@H]1c1ccccc1` (racemic) [III-37], under setting [1], the Emax was < 100%. The EC50 under setting [2] is > 10 µM and the EC50 under setting [4] was 1 to 10 µM. Further, the “Maximum % activity (with co-corrector)” value under setting [3] is “++ (≥150 and <350)”.

As for `CC(C)OC(=O)N1[C@H](c2ccccc2)[C@H](Nc2cc(C(F)(F)F)ccn2)[C@@H](C(C)(C)C)[C@@H]1C(=O)O` (racemic) [III-38], the Emax under setting [1] is < 100%. Besides, the EC50 under setting [2] is 1 to 10 µM and the EC50 under setting [4] fell in the range of 1 to 10 µM. Further, the “Maximum % activity (with co-corrector)” value under setting [3] is “+++ (≥350)”.

As for `COc1cc(Cl)ccc1CN[C@@H]1[C@@H](C)[C@H](C(=O)O)N(C(=O)N(C(C)C)C(C)C)[C@@H]1c1ccccc1` (racemic) [III-39], the Emax under setting [1] was < 100%. The 50% effective concentration (EC50) reads like this: under setting [2], > 10 µM; under setting [4], 1 to 10 µM. Moreover, the “Maximum % activity (with co-corrector)” value under setting [3] is “++ (≥150 and <350)”.

`COc1ccc(C(F)(F)F)cc1CN[C@@H]1[C@@H](C(C)(C)C)[C@H](C(=O)O)N(C(=O)C2CCCCC2)[C@@H]1c1cccnc1N(C)C` (racemic) [III-41]: the Emax under setting [1] lay in the range of 100 to 200%. Also, the EC50 by setting is: under setting [2], 1 to 10 µM; under setting [4], 1 to 10 µM. Moreover, under setting [3], the “Maximum % activity (with co-corrector)” value is reported as “+++ (≥350)”.

Consider `CC(C)(C)[C@@H]1[C@@H](Nc2cc(C#N)ccn2)[C@@H](c2ccccc2)N(C(=O)C2CCCCC2)[C@H]1C(=O)O` (racemic) [III-42], for which, under setting [1], the Emax was < 100%. The EC50 was 1 to 10 µM under setting [2] and 1 to 10 µM under setting [4]. Moreover, under setting [3], the “Maximum % activity (with co-corrector)” value was “++ (≥150 and <350)”.

Regarding `CC(C)OC(=O)N1[C@H](c2ccccc2)[C@H](Nc2cccc(C(F)(F)F)n2)[C@@H](C(C)(C)C)[C@@H]1C(=O)O` (racemic) [III-44], under setting [1], the Emax was < 100%. The EC50 by setting is: under setting [2], 1 to 10 µM; under setting [4], 1 to 10 µM. In addition, the “Maximum % activity (with co-corrector)” value under setting [3] was “++ (≥150 and <350)”.

Regarding `COc1ccccc1[C@@H]1[C@H](NCc2cccc3c2OC(F)(F)O3)[C@@H](C(C)(C)C)[C@H](C(=O)O)N1C(=O)C1CCCCC1` (racemic) [III-45], the Emax under setting [1] is < 100%. Moreover, the concentration giving a half-maximal response (EC50) was in the range of 1 to 10 µM under setting [2] and 1 to 10 µM under setting [4]. Moreover, under setting [3], the “Maximum % activity (with co-corrector)” value was “++ (≥150 and <350)”.

Take `Cc1cc(C(F)(F)F)cc(N[C@@H]2[C@@H](C(C)(C)C)[C@H](C(=O)O)N(C(=O)C3CCCCC3)[C@@H]2c2cccnc2N(C)C)n1` (racemic) [III-46]: the Emax under setting [1] is < 100%. The concentration for a half-maximal effect (EC50) runs as follows: under setting [2], 1 to 10 µM; under setting [4], 1 to 10 µM. Besides, the “Maximum % activity (with co-corrector)” value under setting [3] is “++ (≥150 and <350)”.

As to `Cc1cc(C(F)(F)F)cc(N[C@H]2C(c3ccccc3)N(C(=O)N(C(C)C)C(C)C)[C@@H](C(=O)O)[C@@H]2C2CC2)n1` (mixture of isomers) [III-47], the Emax under setting [1] was < 100%. Also, the EC50 under setting [2] was in the range of 1 to 10 µM and the EC50 under setting [4] lay within 1 to 10 µM. Also, the “Maximum % activity (with co-corrector)” value under setting [3] was “++ (≥150 and <350)”.

As usually defined, the EC50 is the concentration that produces a half-maximal response.
